Measurements: patent US8173133B2, “Acyl pseudodipeptides which carry a functionalized auxiliary arm” (OM Pharma, priority 1999, dated 2012)
Converted amounts (≈) assume the structure as drawn. Where two headings read alike, the source gives them in different places.

Legend:
bone marrow stem cells = test: bone marrow stem cell proliferation (XTT); assay type: cell-based, C57/BL6 mice; conditions: for Max amplitude: 7 days, XTT 492 nm; for Min amplitude: blank ± 3× standard deviation; for Max concentration: concentration at maximum amplitude; for EC50 conc: concentration corresponding to 50% of maximum amplitude; for Min concentration: lowest concentration inducing a significant proliferation
From the text: 6-week old male C57/BL6 mice are killed by CO2 inhalation. The hip, femur, tibia and hind leg bones are removed. The marrow is extracted from the bone lumen by injecting Dulbecco's Modified Eagle Medium (DH medium) from the end portions which had been excised. The stem cells are washed and suspended again in DH medium supplemented with 20% foetal calf serum (FCS) The cell concentration is adjusted to 500000 cells/ml.
(§1) Products previously dissolved in DH medium supplemented with 20% FCS, amino acids and antibiotics are serially diluted directly into a microtiter plate. The products are tested in triplicate and each microtiter plate includes a negative control containing plain medium. The final volume in each well is 100 μl.
100 μl of the cell suspension are added to diluted solutions of products and the cells are incubated for 7 days in an incubator at 37° C., under 8% CO2 and a moisture saturated atmosphere. Cell proliferation is determined by measuring the […] of a chromogenic substrate XTT (2,3-bis[2-methoxy-4-nitro-5-sulphophenyl]-2H-tetrazolium-5-carboxanilide) in mitochondria of viable cells.
At the end of the incubation period, 50 μl of the XTT substrate solution (1 mg/ml XTT+0.008 mg/ml phenazine methosulfate) are added to each well. After an 8 hour incubation period at 37° C. under 8% CO2 in a moisture saturated incubator, the microtiter plates are read with a spectrophotometer at 492 nm against a reference sample at 690 nm.
Results are expressed as mean value±standard deviation and plotted as a dose versus response curve. Values for a negative control composed of DH medium (mean±standard deviation) are also graphically shown.
(§2) From this dose versus response curve, 3 curve variables are computed:
(§3) Max: maximum curve amplitude and corresponding concentration
(§4) EC50: concentration corresponding to 50% of maximum amplitude
(§5) Min: lowest concentration inducing a significant proliferation corresponding to the blank±3× standard deviation value
(§6) Concentration values corresponding to EC50 and Min are determined from line segments joining different points on the curve.
If the curve has no plateau phase but an ascending configuration for the highest concentration being tested, a “>” sign is shown before Max and EC50 values.

murine macrophage cells = test: nitric oxide production by murine macrophage cells (Griess); assay type: cell-based, C57/BL6 mice; conditions: for Max concentration: concentration at maximum amplitude; for EC50 conc: concentration corresponding to 50% of maximum amplitude; for Min concentration: lowest concentration inducing a significant response
From the text: Six-week old male C57/BL6 mice are killed by CO2 inhalation. The hip, femur, tibia and posterior appendage bones are removed. The bone marrow is extracted from the bone lumen by injecting Dulbecco's Modified Eagle Medium (DH medium) from the end portions which had been excised. The stem cells are washed and resuspended (approximate cell concentration 4000 cells/ml) in DH medium supplemented with 20% equine serum (SH) and 30% L929 cell supernatant. L929 is a murine fibroblast cell line the supernatant fluid of which is rich in growth factor for macrophage cells (M-CSF). The cell suspension is divided into Petri dishes which are incubated for 8 days in an incubator at 37° C. under 8% CO2 and a moisture saturated atmosphere.
After 8 days, the stem cells have differentiated into mature macrophage cells. The macrophage cells are scraped off by rapid cooling, washed and resuspended in DH medium supplemented with 5% foetal calf serum (FCS), amino acids and antibiotics. The cell density is adjusted to 700 000 cells/ml.
as §1, with “5%” for “20%”, “in” for “into a”, “plates.” for “plate.”, “triplicates” for “triplicate”, “comprises” for “includes”
100 μl of cell suspension are added to diluted solutions of such products and the cells are incubated for 22 hours in an incubator at 37° C., under 8% CO2 and a moisture saturated atmosphere. At the end of the incubation period with the products, 100 μl of supernatant are withdrawn and the nitrite concentration is determined by running a Griess reaction.
100 μl of Griess reagent (5 mg/ml of sulfanilamide+0.5 mg/ml of N-(1-naphtylethylene diamine hydrochloride)) in 2.5% aq. phosphoric acid, are added to each well. The microtiter plates are read with a spectrophotometer at 562 nm wavelength against a reference sample at 690 nm. The nitrite concentration is proportional to nitric oxide content being formed. The nitrite content is determined based on a standard curve.
The results are given as mean value±standard deviation and plotted as a dose versus response curve.
as §2, §3, §4, §5, §6
If the curve has no plateau phase but an ascending configuration for the highest concentration being tested, a “>” sign is shown before “Max” and “EC50” values.

[1] = system: human peripheral blood mononuclear cells; test: α TNF production by human peripheral blood mononuclear cells; assay type: cell-based; conditions: for α TNF produced: 18 hours
Protocol: Mononuclear cells of peripheral blood are recovered from buffy coats of 6 healthy donors. Such buffy coat cells are resuspended and mononuclear cells are isolated by centrifugation on a Ficoll-Paque gradient (Amersham Pharmacia). Purified mononuclear cells are resuspended into RPMI-1640 medium supplemented with 10% FCS, antibiotics, mercaptoethanol and L-glutamine. Cell concentration is adjusted to 2×10^6 viable cells/ml
100 μl of each one of these solutions of acyl dipeptide-like compounds bearing an accessory functional side chain spacer, diluted 100-, 10- or 1-fold in RPMI medium 1640, are dispensed into a microtiter plate. Samples are tested in triplicates, and each microtiter plate includes a negative control made up of plain medium. Dilutions of E. coli LPS (ranging grom 1 to 0.00001 μg/ml) are used as a positive control.
100 μl of the cell suspension are added to each well containing product dilute solutions or control. Cells are incubated with the products for 18 hours in an incubator at 37° C., under 5% CO2 and a moisture saturated atmosphere.
At the end of the incubation period, microtiter plates are centrifuged, and the supernatant fluids are pooled and frozen at −80° C. as aliquots until time of ELISA assay.
Concentration of α TNF secreted by mononuclear cells is determined by chemiluminescent ELISA (QuantiGlo #QTAOO R&D kit). 4-fold supernatant fluid dilutions are dispensed into each well of the microtiter plate to which anti-αTNF antibodies are bound. The microtiter plate is incubated for 4 hours at room temperature. After washing, peroxidase-conjugated anti-human a TNF antibody is added. Following a 2 hour incubation period and thorough washing, a chemiluminescent substrate is added and chemilunescence is read after 20 minutes. α TNF content in the supernatant fluid is determined with respect to a standard curve covering the 7000 to 0.7 pg/ml range.
Results are expressed in pg/ml of α TNF produced. Results derive from an experiment representative of acyl-dipeptide-like compound activity

[2] = system: Limulus Amoebocyte Lysate

Compound: CCCCCCCCCCCC(=O)O[C@H](CCCCCCCCCCC)CC(=O)N[C@H](CC(=O)N[C@@H](CC(=O)O)C(=O)O)C(=O)NCCC[C@H](CO)NC(=O)C[C@H](O)CCCCCCCCCCC [OM-197-Asp, N—[(R)-3-dodecanoyloxytetradecanoyl]-D-aspartic acid, α-N-{(4R)-5-hydroxy-4-[(R)-3-hydroxytetradecanoylamino]-pentyl}Amide β-N-[(1S)-1,2-Dicarboxyethyl]Amide]
- Max amplitude (bone marrow stem cells): 1.22 O.D
- Min amplitude (bone marrow stem cells): 0.80 O.D
- Max concentration (bone marrow stem cells): 25 µg/mL
- EC50 conc (bone marrow stem cells): 5.0 µg/mL (≈ 5.08 µM)
- Min concentration (bone marrow stem cells): 1.89 µg/mL
- Max concentration (murine macrophage cells): 51 µg/mL
- EC50 conc (murine macrophage cells): 0.95 µg/mL (≈ 0.966 µM)
- Min concentration (murine macrophage cells): 0.086 µg/mL
- α TNF produced ([1]; product 1 μg/ml): 0 pg/mL
- α TNF produced ([1]; product 10 μg/ml): 28 pg/mL
- α TNF produced ([1]; product 100 μg/ml): 80 pg/mL
- LAL EU/mg of product [2]: <2.5 EU/mg of product
- LAL ng of LPS equivalent per mg of product [2]: <0.2 ng of LPS equivalent per mg of product

Compound: CCCCCCCCCCCC(=O)O[C@H](CCCCCCCCCCC)CC(=O)NC(CCOP(=O)(O)O)C(=O)NCCCC(COC(=O)CCCCC(O)CO)NC(=O)C[C@H](O)CCCCCCCCCCC (stereo partly drawn) [OM-197-FV6, 3-[(R)-dodecanoyloxytetradecanoylamino]-4oxo-5-aza-9-[(R)-3-hydroxytetradecanoylamino]-decan-1,10-diol 1-dihydrogenphate 10-(6,7-dihydroxyheptanoate)]
- Max amplitude (bone marrow stem cells): 1.52 O.D
- Min amplitude (bone marrow stem cells): 0.80 O.D
- Max concentration (bone marrow stem cells): 50 µg/mL
- EC50 conc (bone marrow stem cells): 5.7 µg/mL (≈ 5.29 µM)
- Min concentration (bone marrow stem cells): 1.60 µg/mL
- Max concentration (murine macrophage cells): 25.6 µg/mL
- EC50 conc (murine macrophage cells): 1.49 µg/mL (≈ 1.38 µM)
- Min concentration (murine macrophage cells): 0.20 µg/mL
- α TNF produced ([1]; product 1 μg/ml): 0 pg/mL
- α TNF produced ([1]; product 10 μg/ml): 104 pg/mL
- α TNF produced ([1]; product 100 μg/ml): 88 pg/mL
- LAL EU/mg of product [2]: 540 EU/mg of product
- LAL ng of LPS equivalent per mg of product [2]: 43 ng of LPS equivalent per mg of product

Compound: CCCCCCCCCCCC(=O)O[C@H](CCCCCCCCCCC)CC(=O)N[C@H](CC(=O)O)C(=O)NCCC[C@H](COP(=O)(O)O)NC(=O)C[C@H](O)CCCCCCCCCCC [OM-197-MC-MP, N—[(R)-3-dodecanoyloxytetradecanoyl]-D-aspartic acid, α-N-{(4R)-5-dihydroxyphosphoryloxy-4-[(R)-3-hydroxytetradecanoyl-amino]pentyl}amide]
- Max amplitude (bone marrow stem cells): > 1.60 O.D
- Min amplitude (bone marrow stem cells): 0.80 O.D
- Max concentration (bone marrow stem cells): > 160 µg/mL
- EC50 conc (bone marrow stem cells): > 6.5 µg/mL
- Min concentration (bone marrow stem cells): 0.77 µg/mL
- Max concentration (murine macrophage cells): 51 µg/mL
- EC50 conc (murine macrophage cells): 1.18 µg/mL (≈ 1.24 µM)
- Min concentration (murine macrophage cells): 0.11 µg/mL
- concentration at which a significant α TNF production level is induced ([1]; only at this concentration): 100 µg/mL
- α TNF produced ([1]; product 1 μg/ml): 0 pg/mL
- α TNF produced ([1]; product 10 μg/ml): 0 pg/mL
- α TNF produced ([1]; product 100 μg/ml): 72 pg/mL
- LAL EU/mg of product [2]: 210.5 EU/mg of product
- LAL ng of LPS equivalent per mg of product [2]: 16.8 ng of LPS equivalent per mg of product

Compound: CCCCCCCCCCCC(=O)O[C@H](CCCCCCCCCCC)CC(=O)N[C@H](CC(=O)O)C(=O)NCCC[C@H](COC(=O)CCCCCNC(=O)CCC(=O)OC[C@H]1O[C@@H](n2cc(C)c(=O)[nH]c2=O)C[C@@H]1N=[N+]=[N-])NC(=O)C[C@H](O)CCCCCCCCCCC [OM-197-MC-AC-Succ-AZT]
- Max amplitude (bone marrow stem cells): 1.08 O.D
- Min amplitude (bone marrow stem cells): 0.80 O.D
- Max concentration (bone marrow stem cells): 12.5 µg/mL
- EC50 conc (bone marrow stem cells): 3.3 µg/mL (≈ 2.48 µM)
- Min concentration (bone marrow stem cells): 2.11 µg/mL
- Max concentration (murine macrophage cells): > 100 µg/mL
- EC50 conc (murine macrophage cells): > 74.89 µg/mL
- Min concentration (murine macrophage cells): 55.98 µg/mL
- α TNF produced ([1]; product 1 μg/ml): 108 pg/mL
- α TNF produced ([1]; product 10 μg/ml): 224 pg/mL
- α TNF produced ([1]; product 100 μg/ml): 64 pg/mL
- LAL ng of LPS equivalent per mg of product ([2]; 1 EU = 0.08 ng E. coli 055:B5 LPS): 0.11 ng of LPS equivalent per mg of product
- LAL EU/mg of product ([2]; acyl-dipeptide-like compounds, diluted 0.1 mg/ml solution): 1.34 EU/mg of product

Compound: CCCCCCCCCCCC(=O)O[C@H](CCCCCCCCCCC)CC(=O)N[C@@H](CCOP(=O)(O)O)C(=O)NCCC[C@H](COC(=O)CCCCCO)NC(=O)C[C@H](O)CCCCCCCCCCC [OM-197-MP-AC (S, R), (3S,9R)-3-[(R)-3-dodecanoyloxytetradecanoylamino]-4-oxo-5-aza-9-[(R)-3-hydroxytetradecanoylamino]-1,10-diol 1-dihydrogenphosphate 10-(6-hydroxyhexanoate)]
- Max amplitude (bone marrow stem cells): 1.22 O.D
- Min amplitude (bone marrow stem cells): 0.80 O.D
- Max concentration (bone marrow stem cells): 6.25 µg/mL
- EC50 conc (bone marrow stem cells): 2.62 µg/mL (≈ 2.5 µM)
- Min concentration (bone marrow stem cells): 1.17 µg/mL
- Max concentration (murine macrophage cells): 40 µg/mL
- EC50 conc (murine macrophage cells): 3.28 µg/mL (≈ 3.13 µM)
- Min concentration (murine macrophage cells): 0.59 µg/mL
- α TNF produced ([1]; product 1 μg/ml): 488 pg/mL
- α TNF produced ([1]; product 10 μg/ml): 124 pg/mL
- α TNF produced ([1]; product 100 μg/ml): 80 pg/mL
- LAL EU/mg of product [2]: <0.125 EU/mg of product
- LAL ng of LPS equivalent per mg of product [2]: <0.01 ng of LPS equivalent per mg of product

Compound: CCCCCCCCCCC[C@@H](O)CC(=O)N[C@H](CCCNC(=O)[C@@H](CC(=O)O)NC(C)=O)COC(=O)CCCCCN [OM-197-N′C2-MC-AC, N-acetyl-D-aspartic acid, α-N-{(4R)-5-(6-aminohexanoyloxy)-4-[(R)-3-hydroxytetradecanoylamino]-pentyl}amide]
- Max amplitude (bone marrow stem cells): 0.75 O.D
- Min amplitude (bone marrow stem cells): 0.80/nd O.D
- Max concentration (bone marrow stem cells): 1.56 µg/mL
- Max concentration (murine macrophage cells): 200 µg/mL
- α TNF produced ([1]; product 1 μg/ml): 0 pg/mL
- α TNF produced ([1]; product 10 μg/ml): 0 pg/mL
- α TNF produced ([1]; product 100 μg/ml): 0 pg/mL
- α TNF production ([1]; up to 100 μg/ml): do not induce any αTNF production
- LAL EU/mg of product [2]: <0.5 EU/mg of product
- LAL ng of LPS equivalent per mg of product [2]: <0.04 ng of LPS equivalent per mg of product
